Structures can show the parent of a compound that is named as a salt. Where two headings read alike, the source gives them in different places.

A short description of assay [1]: Test 2: blood pressure depression up to 24 hours and duration until 50% recovery, oral. The format is in vivo, Male, spontaneously hypertension-developing rats. Conditions: for response vs control in vivo at 25 mg/kg: Rattus norvegicus, percent based on that before administration (100); for Duration 50% recovery: duration until pressure recovered to 50% from the maximum depression value. On the procedure: (§1) Male, spontaneously hypertension-developing rats of ages of 10 to 11 weeks (in groups of 3 to 5 animals) were used in the test. For blood pressure determination, systolic pressure was measured without anesthesia by an indirect tail-cuff method using a sphygmomanometer (PE-300, Narco Bio-System).

Assay [2] in a line: Test 1: blood pressure depression effect, systolic pressure, indirect tail-cuff method, oral. Format: in vivo, Male, spontaneously hypertension-developing rats. Particulars: for Systolic blood pressure (mmHg) After 1 hr / Systolic blood pressure (mmHg) After 4 hrs / Systolic blood pressure (mmHg) After 7 hrs: 25 mg/kg oral, average value; for Systolic blood pressure (mmHg) After 1 hr: 1 hr after administration; for Systolic blood pressure (mmHg) After 4 hrs: 4 hrs after administration; for Systolic blood pressure (mmHg) After 7 hrs: 7 hrs after administration. On the procedure:
Blood pressure depression effect
as §1
The compound to be tested was orally administered (at a dose of 25 mg/kg in terms of the active compound) as a 10% HCO-60 (polyoxyethylene hardened castor oil) suspension. Blood pressure was determined 1, 4 and 7 hours after the administration.
Further, the blood pressure depression effect of the fumarate of the compound obtained in Example 28 described later was examined in the same manner as described above.

Setting [3] is: 1h after oral administration, read-out: Depression value (%) of blood pressure, 1h.
Where [4] appears, read: 2h after oral administration, read-out: Depression value (%) of blood pressure, 2h.
Setting [5] is: 4h after oral administration, read-out: Depression value (%) of blood pressure, 4h.
Where [6] appears, read: 7h after oral administration, read-out: Depression value (%) of blood pressure, 7h.
[7] abbreviates: 24h after oral administration, read-out: Depression value (%) of blood pressure, 24h.
The mark [8] stands for this setting: maximum lowering, read-out: Depression value (%) of blood pressure, Max.

With `COC(=O)C1=C(C)NC(C)=C(C(=O)OCCN(C)Cc2ccccc2)C1c1cccc(Br)n1` (stereo not drawn) [Example 3, 2,6-Dimethyl-4-(6-bromo-2-pyridyl)-1,4-dihydropyridine-3,5-dicarboxylicacid 3-β-(N-benzyl-methylamino)ethyl ester 5-methyl ester], the response vs control in vivo at 25 mg/kg in assay [1] (setting [3]) was determined as 63%; in assay [1] (setting [4]) it was 72%; in assay [1] (setting [5]), 86%; in assay [1] (setting [6]) it was 83%; in assay [1] (setting [7]), 99%; in assay [1] (setting [8]), 63%. In assay [1], the “Duration 50% recovery” value is reported as 3.5 h. Besides, in assay [2], the “Systolic blood pressure (mmHg) After 1 hr” value was 126 mmHg. In addition, in assay [2], the “Systolic blood pressure (mmHg) After 4 hrs” value was found to be 143 mmHg. Moreover, the “Systolic blood pressure (mmHg) After 7 hrs” value in assay [2] worked out at 161 mmHg.

Consider `COC(=O)C1=C(C)NC(C)=C(C(=O)OCCN(C)Cc2ccccc2)C1c1cccc(C#N)n1` (stereo not drawn) [Example 1, 2,6-Dimethyl-4-(6-cyano-2-pyridyl)-1,4-dihydropyridine-3,5-dicarboxylicacid 3-β-(N-benzyl-N-methylamino)ethyl ester 5-methyl ester], for which the response vs control in vivo at 25 mg/kg in assay [1] (setting [3]) came out at 69%; in assay [1] (setting [4]) it was 74%; in assay [1] (setting [5]), 84%; in assay [1] (setting [6]) it was 88%; in assay [1] (setting [7]) it was 98%; in assay [1] (setting [8]), 69%. Besides, the “Duration 50% recovery” value in assay [1] is on record as 4.4 h. Further, in assay [2], the “Systolic blood pressure (mmHg) After 1 hr” value is reported as 115 mmHg. Moreover, the “Systolic blood pressure (mmHg) After 4 hrs” value in assay [2] is on record as 137 mmHg. The “Systolic blood pressure (mmHg) After 7 hrs” value in assay [2] is on record as 148 mmHg.

On to `COC(=O)C1=C(C)NC(C)=C(C(=O)OCCN(C)Cc2ccccc2)C1c1cccnc1C(F)(F)F` (centres unmarked) [Example 28 fumarate], for which the “time required for 50% recovery from maximum depression value (%) of blood pressure” value in assay [2] (same manner as Test 1, oral) is 16.2 h. For the same molecule, the “maximum depression value (%) of blood pressure from the value (100%) before administration” value in assay [2] (same manner as Test 1, oral, before administration = 100%) is 67%.

`COC(=O)C1=C(C)NC(C)=C(C(=O)OCCN(C)Cc2ccccc2)C1c1ccnc(C(F)(F)F)c1` (stereo not drawn) [Example 6, 2,6-Dimethyl-4-(2-trifluoromethyl-4-pyridyl)-1,4-dihydropyridine-3,5-dicarboxylic acid 3-β-(N-benzyl-N-methylamino)ethyl ester 5-methyl ester]: in assay [2], the “Systolic blood pressure (mmHg) After 1 hr” value came to 139 mmHg, the “Systolic blood pressure (mmHg) After 4 hrs” value is recorded as 145 mmHg and the “Systolic blood pressure (mmHg) After 7 hrs” value turned out to be 145 mmHg.

For the molecule `COC(=O)C1=C(C)NC(C)=C(C(=O)OCCN(C)Cc2ccccc2)C1c1cccnc1C(F)(F)F` (stereo not drawn) [(13), 2,6-Dimethyl-4-(2-trifluoromethyl-3-pyridyl)-1,4-dihydropyridine-3,5-dicarboxylic acid 3-β-(benzyl-N-methylamino)ethyl ester 5-methyl ester], the response vs control in vivo at 25 mg/kg in assay [1] (setting [3]) was determined as 73%; in assay [1] (setting [4]), 67%; in assay [1] (setting [5]), 67%; in assay [1] (setting [6]), 71%; in assay [1] (setting [7]) it was 94%; in assay [1] (setting [8]), 67%. Further, in assay [1], the “Duration 50% recovery” value is 16.2 h.

With `COC(=O)C1=C(C)NC(C)=C(C(=O)OCCN(C)Cc2ccccc2)C1c1cncc(Br)c1` (stereo not drawn) [(14), 2,6-Dimethyl-4-(5-bromo-3-pyridyl)-1,4-dihydropyridine-3,5-dicarboxylic ac id 3-β-(N-benzyl-N-methylamino)ethyl ester 5-methyl ester], the response vs control in vivo at 25 mg/kg in assay [1] (setting [3]) worked out at 83%; in assay [1] (setting [4]) it was 91%; in assay [1] (setting [5]), 90%; in assay [1] (setting [6]) it was 90%; in assay [1] (setting [7]), 101%; in assay [1] (setting [8]) it was 83%. Further, the “Duration 50% recovery” value in assay [1] worked out at 9.3 h.

As to `COC(=O)C1=C(C)NC(C)=C(C(=O)OCCN(C)Cc2ccccc2)C1c1cc([N+](=O)[O-])ccn1` (stereo not drawn) [Example 5, 2,6-Dimethyl-4-(4-nitro-2-pyridyl)-1,4-dihydropyridine-3,5-dicarboxylic acid 3-β-(N-benzyl-N-methylamino)ethyl ester 5-methyl ester], the response vs control in vivo at 25 mg/kg in assay [1] (setting [3]) is 67%; in assay [1] (setting [4]) it was 82%; in assay [1] (setting [5]) it was 93%; in assay [1] (setting [6]), 90%; in assay [1] (setting [7]) it was 104%; in assay [1] (setting [8]), 67%. In addition, in assay [1], the “Duration 50% recovery” value was 2.3 h. Further, the “Systolic blood pressure (mmHg) After 1 hr” value in assay [2] turned out to be 156 mmHg. Moreover, in assay [2], the “Systolic blood pressure (mmHg) After 4 hrs” value stood at 135 mmHg. Also, the “Systolic blood pressure (mmHg) After 7 hrs” value in assay [2] stood at 140 mmHg.

`COC(=O)C1=C(C)NC(C)=C(C(=O)OCCN(C)Cc2ccccc2)C1c1cccc([N+](=O)[O-])c1` (stereo not drawn) [Nic, 2,6-dimethyl-4-(3-nitrophenyl)-1,4-dihydropyridine-3,5-dicarboxylic acid 3-β-(N-benzyl-N-methylamino)ethyl ester 5-methyl ester, reference compound]: the response vs control in vivo at 25 mg/kg in assay [1] (setting [3]) is 62%; in assay [1] (setting [4]), 68%; in assay [1] (setting [5]) it was 76%; in assay [1] (setting [6]), 81%; in assay [1] (setting [7]), 96%; in assay [1] (setting [8]) it was 62%. In addition, the “Duration 50% recovery” value in assay [1] was determined as 7.0 h.

The values are drawn from patent US4849429A, “Certain 1,4-dihydro-2,6-dilower-alkyl-4-(mono-substituted pyridyl) useful for treating coronary artery or cerebral artery disease” (The Green Cross Corporation, priority 1985, dated 1989).
